Measured values: patent US20250230147A1, “LACTAMS AS CBL-B INHIBITORS” (Genentech, Inc., priority 2021, published 2025)

How the values were obtained:
c-Cbl = c-Cbl (Homo sapiens (Human), UniProt P22681); test: C-Cbl LCK Ub TR-FRET assay (c-cbl Lck HTRF); assay type: biochemical; conditions: for (fold-selectivity): C-cbl Lck HTRF IC50 relative to Cbl-b Lck HTRF IC50
Method in brief: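 Signal is read once the detection mix has stood 20 min at ambient temperature. Curves are anchored by DMSO as maximum and by omission of LCK as minimum.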

Cbl-b = Cbl-b (Homo sapiens (Human), UniProt Q13191); test: Cbl-b LCK Ub TR-FRET assay (Cbl-b Lck HTRF); assay type: biochemical
Cbl-b, sequence (Q13191 40-426): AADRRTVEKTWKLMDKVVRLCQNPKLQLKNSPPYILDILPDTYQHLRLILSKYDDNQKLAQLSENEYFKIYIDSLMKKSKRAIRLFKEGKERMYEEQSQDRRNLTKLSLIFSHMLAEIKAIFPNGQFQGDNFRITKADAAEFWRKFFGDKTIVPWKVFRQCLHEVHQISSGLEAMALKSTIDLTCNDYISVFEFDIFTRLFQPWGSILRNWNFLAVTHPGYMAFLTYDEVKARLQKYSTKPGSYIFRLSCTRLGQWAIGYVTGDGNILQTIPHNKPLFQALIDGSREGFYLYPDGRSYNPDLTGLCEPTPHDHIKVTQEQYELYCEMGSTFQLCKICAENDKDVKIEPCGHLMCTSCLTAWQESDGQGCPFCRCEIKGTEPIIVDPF
Method in brief: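 TR-FRET (340 nm excitation, 615/665 nm emission) read after adding HA-ubiquitin–UBE2D2 thioester, anti-HA-D2 and streptavidin-Eu. Beforehand, compounds incubated 60 min with biotinylated Cbl-b, then 90 min with His-LCK and ATP (1 mM in 2× mix); IC50 from 10 concentrations, DMSO high and no-LCK low controls.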

c-Cbl, sequence (P22681 47-435): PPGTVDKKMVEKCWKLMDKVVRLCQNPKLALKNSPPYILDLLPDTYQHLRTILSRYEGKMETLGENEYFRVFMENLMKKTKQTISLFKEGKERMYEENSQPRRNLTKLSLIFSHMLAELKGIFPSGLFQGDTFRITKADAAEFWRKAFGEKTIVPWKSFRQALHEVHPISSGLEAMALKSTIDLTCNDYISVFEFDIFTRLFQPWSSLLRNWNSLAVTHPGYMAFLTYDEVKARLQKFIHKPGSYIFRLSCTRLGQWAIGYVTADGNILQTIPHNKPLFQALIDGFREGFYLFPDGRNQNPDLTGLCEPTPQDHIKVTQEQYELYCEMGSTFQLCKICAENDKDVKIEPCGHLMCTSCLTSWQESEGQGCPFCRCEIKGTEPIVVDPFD

| IC50 (c-Cbl) [nM] | (fold-selectivity) (c-Cbl) | IC50 (Cbl-b) [nM] | Compound |
| --- | --- | --- | --- |
| 6200 | (0.57x) | 11000 | CC(C)[C@H]1CN(C)CCN1Cc1cc2c(c(C(F)(F)F)c1)CN(c1cccc(C3([C@@H](F)c4nncn4C4CCCCC4)COC3)c1)C2=O [Compound 454, 2-(3-(3-((R)-(4-cyclohexyl-4H-1,2,4-triazol-3-yl)fluoromethyl)oxetan-3-yl)phenyl)-6-(((S)-2-isopropyl-4-methylpiperazin-1-yl)methyl)-4-(trifluoromethyl)isoindolin-1-one] |
| 3100 | (0.70x) | 4400 | CC(C)[C@H]1CN(C)CCN1Cc1cc2c(c(C(F)(F)F)c1)CN(c1cccc(C3([C@H](F)c4nncn4C4CCCCC4)COC3)c1)C2=O [Compound 455, 2-(3-(3-((S)-(4-cyclohexyl-4H-1,2,4-triazol-3-yl)fluoromethyl)oxetan-3-yl)phenyl)-6-(((S)-2-isopropyl-4-methylpiperazin-1-yl)methyl)-4-(trifluoromethyl)isoindolin-1-one] |
| 7.6 | (0.56x) | 13 | CCCNCc1cc2c(c(C(F)(F)F)c1)CN(c1cc(NC(C)C)cc(C3(Cc4nncn4C)CCC3)c1)C2=O [Compound 456, 2-(3-(isopropylamino)-5-(1-((4-methyl-4H-1,2,4-triazol-3-yl)methyl)cyclobutyl)phenyl)-6-((propylamino)methyl)-4-(trifluoromethyl)isoindolin-1-one] |
| 12 | (0.71x) | 17 | CCNc1cc(N2Cc3c(cc(CNCC4CC4)cc3C(F)(F)F)C2=O)cc(C2(Cc3nncn3C)CCC2)c1 [Compound 457, 6-(((cyclopropylmethyl)amino)methyl)-2-(3-(ethylamino)-5-(1-((4-methyl-4H-1,2,4-triazol-3-yl)methyl)cyclobutyl)phenyl)-4-(trifluoromethyl)isoindolin-1-one] |
| 15 | (0.66x) | 23 | CCCNCc1cc2c(c(C(F)(F)F)c1)CN(c1cc(NCC)cc(C3(Cc4nncn4C)CCC3)c1)C2=O [Compound 458, 2-(3-(ethylamino)-5-(1-((4-methyl-4H-1,2,4-triazol-3-yl)methyl)cyclobutyl)phenyl)-6-((propylamino)methyl)-4-(trifluoromethyl)isoindolin-1-one] |
| 8.7 | (0.70x) | 13 | CC(C)Nc1cc(N2Cc3c(cc(CNCC4CC4)cc3C(F)(F)F)C2=O)cc(C2(Cc3nncn3C)CCC2)c1 [Compound 459, 6-(((cyclopropylmethyl)amino)methyl)-2-(3-(isopropylamino)-5-(1-((4-methyl-4H-1,2,4-triazol-3-yl)methyl)cyclobutyl)phenyl)-4-(trifluoromethyl)isoindolin-1-one] |
| 8.4 | (0.58x) | 14 | CCN1CCN(Cc2cc3c(c(C(F)(F)F)c2)CN(c2cccc(C4([C@@H](F)c5nncn5C)CC(F)(F)C4)c2)C3=O)[C@@H](C(C)C)C1 [Compound 460, 2-(3-(3,3-difluoro-1-((R)-fluoro(4-methyl-4H-1,2,4-triazol-3-yl)methyl)cyclobutyl)phenyl)-6-(((S)-4-ethyl-2-isopropylpiperazin-1-yl)methyl)-4-(trifluoromethyl)isoindolin-1-one] |
| 8.2 | (0.82x) | 9.9 | CCN1CCN(Cc2cc3c(c(C(F)(F)F)c2)CN(c2cccc(C4([C@H](F)c5nncn5C)CC(F)(F)C4)c2)C3=O)[C@@H](C(C)C)C1 [Compound 461, 2-(3-(3,3-difluoro-1-((S)-fluoro(4-methyl-4H-1,2,4-triazol-3-yl)methyl)cyclobutyl)phenyl)-6-(((S)-4-ethyl-2-isopropylpiperazin-1-yl)methyl)-4-(trifluoromethyl)isoindolin-1-one] |
| 7.9 | (0.95x) | 8.3 | CC(C)Nc1cc(N2Cc3c(cc(CNC4(C)CCC4)cc3C(F)(F)F)C2=O)cc(C2(Cc3nncn3C)CCC2)c1 [Compound 462, 2-(3-(isopropylamino)-5-(1-((4-methyl-4H-1,2,4-triazol-3-yl)methyl)cyclobutyl)phenyl)-6-(((1-methylcyclobutyl)amino)methyl)-4-(trifluoromethyl)isoindolin-1-one] |
| 3.5 | (0.55x) | 6 | CCNc1cc(N2Cc3c(cc(CNC4(C)CCC4)cc3C(F)(F)F)C2=O)cc(C2(Cc3nncn3C)CCC2)c1 [Compound 463, 2-(3-(ethylamino)-5-(1-((4-methyl-4H-1,2,4-triazol-3-yl)methyl)cyclobutyl)phenyl)-6-(((1-methylcyclobutyl)amino)methyl)-4-(trifluoromethyl)isoindolin-1-one] |
| 12 | (1.0x) | 12 | Cn1cnnc1[C@H](F)C1(c2cccc(N3Cc4c(cc(CNC5(C)CCC5)cc4C(F)(F)F)C3=O)c2)CC(F)(F)C1 [Compound 464, (R)-2-(3-(3,3-difluoro-1-(fluoro(4-methyl-4H-1,2,4-triazol-3-yl)methyl)cyclobutyl)phenyl)-6-(((1-methylcyclobutyl)amino)methyl)-4-(trifluoromethyl)isoindolin-1-one] |
| 13 | (0.90x) | 14 | Cn1cnnc1[C@@H](F)C1(c2cccc(N3Cc4c(cc(CNC5(C)CCC5)cc4C(F)(F)F)C3=O)c2)CC(F)(F)C1 [Compound 465, (S)-2-(3-(3,3-difluoro-1-(fluoro(4-methyl-4H-1,2,4-triazol-3-yl)methyl)cyclobutyl)phenyl)-6-(((1-methylcyclobutyl)amino)methyl)-4-(trifluoromethyl)isoindolin-1-one] |
| 6.1 | (0.96x) | 6.4 | CCNc1cc(N2Cc3c(cc(CNC4(C)CCC4)cc3C(F)(F)F)C2=O)cc(C2(Cc3nncn3C)CC(F)(F)C2)c1 [Compound 466, 2-(3-(3,3-difluoro-1-((4-methyl-4H-1,2,4-triazol-3-yl)methyl)cyclobutyl)-5-(ethylamino)phenyl)-6-(((1-methylcyclobutyl)amino)methyl)-4-(trifluoromethyl)isoindolin-1-one] |
| 11 | (0.89x) | 12 | Cn1cnnc1C[C@]1(c2cccc(N3Cc4c(cc(CNC5(C)CCC5)cc4C(F)(F)F)C3=O)c2)C[C@H](C#N)C1 [Compound 467, (1r,3r)-3-((4-methyl-4H-1,2,4-triazol-3-yl)methyl)-3-(3-(6-(((1-methylcyclobutyl)amino)methyl)-1-oxo-4-(trifluoromethyl)isoindolin-2-yl)phenyl)cyclobutanecarbonitrile] |
| 15 | (1.0x) | 15 | Cn1cnnc1C[C@]1(c2cccc(N3Cc4c(cc(CNC5(C)CCC5)cc4C(F)(F)F)C3=O)c2)C[C@@H](C#N)C1 [Compound 468, (1s,3s)-3-((4-methyl-4H-1,2,4-triazol-3-yl)methyl)-3-(3-(6-(((1 - methylcyclobutyl)amino)methyl)-1-oxo-4-(trifluoromethyl)isoindolin-2-yl)phenyl)cyclobutanecarbonitrile] |
| 52 | (1.1x) | 48 | CC[C@H]1CC[C@H](c2cc3c(c(C(F)(F)F)c2)CN(c2cccc(C4(Cc5nncn5C)CC(F)(F)C4)c2)C3=O)N1 [Compound 469, 2-(3-(3,3-difluoro-1-((4-methyl-4H-1,2,4-triazol-3-yl)methyl)cyclobutyl)phenyl)-6-((2R,5S)-5-ethylpyrrolidin-2-yl)-4-(trifluoromethyl)isoindolin-1-one] |
| 6.8 | (0.83x) | 8.2 | Cn1cnnc1[C@H](F)C1(c2cccc(N3Cc4c(Br)cc(CNC5(C)CCC5)cc4C3=O)c2)COC1 [Compound 471, (R)-4-bromo-2-(3-(3-(fluoro(4-methyl-4H-1,2,4-triazol-3-yl)methyl)oxetan-3-yl)phenyl)-6-(((1-methylcyclobutyl)amino)methyl) isoindolin-1-one] |
| 13 | (0.83x) | 15 | Cn1cnnc1CC1(c2cc(C3CC3)cc(N3Cc4c(cc(CNC5(C)CCC5)cc4C(F)(F)F)C3=O)c2)COC1 [Compound 472, 2-(3-cyclopropyl-5-(3-((4-methyl-4H-1,2,4-triazol-3-yl)methyl)oxetan-3-yl)phenyl)-6-(((1-methylcyclobutyl)amino)methyl)-4-(trifluoromethyl)isoindolin-1-one] |
| 17 | (1.2x) | 15 | CCOc1cc(N2Cc3c(cc(CNC4(C)CCC4)cc3C(F)(F)F)C2=O)cc(C2(Cc3nncn3C)COC2)c1 [Compound 473, 2-(3-ethoxy-5-(3-((4-methyl-4H-1,2,4-triazol-3-yl)methyl)oxetan-3-yl)phenyl)-6-(((1-methylcyclobutyl)amino)methyl)-4-(trifluoromethyl)isoindolin-1-one] |
| 8.6 | (0.79x) | 11 | CCNc1cc(N2Cc3c(cc(CNC4(C)CCC4)cc3C(F)(F)F)C2=O)cc(C2(Cc3nncn3C)COC2)c1 [Compound 474, 2-(3-(ethylamino)-5-(3-((4-methyl-4H-1,2,4-triazol-3-yl)methyl)oxetan-3-yl)phenyl)-6-(((1-methylcyclobutyl)amino)methyl)-4-(trifluoromethyl)isoindolin-1-one] |
| 69 | (1.3x) | 54 | CC[C@H]1CC[C@@H](c2cc3c(c(C(F)(F)F)c2)CN(c2cccc(C4(Cc5nncn5C)CC(F)(F)C4)c2)C3=O)N1 [Compound 475, 2-(3-(3,3-difluoro-1-((4-methyl-4H-1,2,4-triazol-3-yl)methyl)cyclobutyl)phenyl)-6-((2S,5S)-5-ethylpyrrolidin-2-yl)-4-(trifluoromethyl)isoindolin-1-one] |
